Counter-ions that a name gives are not always drawn.
What was measured:
[1] = biological target: T1, Rat plasma DPP-IV (Rattus norvegicus, UniProt P14740); test: Plasma DPP-IV inhibitory activity, fluorescence assay with Gly-Pro-MCA (rat plasma); format: biochemical; settings: rat plasma (10-fold dilution), Gly-Pro-MCA substrate, room temperature, 60 min
T1 construct: Rat plasma DPP-IV; from tissue; host or cells: rat plasma
Protocol: (§1) The plasma DPP-IV inhibitory activity of human and rat was measured according to the fluorescence assay method and under the conditions of Table 10. As a DPP-IV specific fluorescent substrate, Gly-Pro-MCA (Peptide Institute, Inc.) was used, and reaction solutions having the following compositions containing various concentrations of the test substance were incubated at room temperature for 60 min and the fluorescence intensity (Excitation 360 nm/Emission 465 nm) measured (SPECTRA FLUOR, Tecan Group, Ltd.) was taken as the DPP-IV activity.
(§2) The inhibitory ratio to a solvent addition group was calculated and IC50 value was determined by logistic analysis.

[2] = biological target: T2, Human plasma DPP-IV (Homo sapiens, UniProt P27487); test: Plasma DPP-IV inhibitory activity, fluorescence assay with Gly-Pro-MCA (human plasma); format: biochemical; settings: for IC50: human plasma (10-fold dilution), Gly-Pro-MCA substrate, room temperature, 60 min
T2 construct: Human plasma DPP-IV; from tissue; host or cells: human plasma
T2 sequence (P27487 39-766 limits assumed): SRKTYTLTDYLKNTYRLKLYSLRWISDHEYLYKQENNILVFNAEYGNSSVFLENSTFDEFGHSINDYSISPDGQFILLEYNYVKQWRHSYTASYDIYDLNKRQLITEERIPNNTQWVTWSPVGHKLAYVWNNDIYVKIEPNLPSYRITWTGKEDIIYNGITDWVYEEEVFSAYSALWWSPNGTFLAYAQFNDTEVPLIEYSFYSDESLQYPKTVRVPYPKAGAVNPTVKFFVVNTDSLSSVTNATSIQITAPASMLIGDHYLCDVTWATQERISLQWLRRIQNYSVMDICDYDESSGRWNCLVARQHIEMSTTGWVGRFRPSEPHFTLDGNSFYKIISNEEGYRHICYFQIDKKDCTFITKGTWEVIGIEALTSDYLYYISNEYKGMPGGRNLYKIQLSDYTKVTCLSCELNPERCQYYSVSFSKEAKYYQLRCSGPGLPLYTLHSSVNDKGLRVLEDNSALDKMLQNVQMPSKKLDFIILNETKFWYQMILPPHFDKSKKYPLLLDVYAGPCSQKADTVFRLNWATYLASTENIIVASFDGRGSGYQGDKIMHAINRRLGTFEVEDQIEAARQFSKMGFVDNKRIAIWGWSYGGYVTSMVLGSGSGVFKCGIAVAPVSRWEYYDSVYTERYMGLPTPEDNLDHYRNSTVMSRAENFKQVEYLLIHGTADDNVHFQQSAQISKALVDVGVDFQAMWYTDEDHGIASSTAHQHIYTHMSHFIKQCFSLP
Protocol: as §1, §2

T1 sequence (P14740 38-767 limits assumed): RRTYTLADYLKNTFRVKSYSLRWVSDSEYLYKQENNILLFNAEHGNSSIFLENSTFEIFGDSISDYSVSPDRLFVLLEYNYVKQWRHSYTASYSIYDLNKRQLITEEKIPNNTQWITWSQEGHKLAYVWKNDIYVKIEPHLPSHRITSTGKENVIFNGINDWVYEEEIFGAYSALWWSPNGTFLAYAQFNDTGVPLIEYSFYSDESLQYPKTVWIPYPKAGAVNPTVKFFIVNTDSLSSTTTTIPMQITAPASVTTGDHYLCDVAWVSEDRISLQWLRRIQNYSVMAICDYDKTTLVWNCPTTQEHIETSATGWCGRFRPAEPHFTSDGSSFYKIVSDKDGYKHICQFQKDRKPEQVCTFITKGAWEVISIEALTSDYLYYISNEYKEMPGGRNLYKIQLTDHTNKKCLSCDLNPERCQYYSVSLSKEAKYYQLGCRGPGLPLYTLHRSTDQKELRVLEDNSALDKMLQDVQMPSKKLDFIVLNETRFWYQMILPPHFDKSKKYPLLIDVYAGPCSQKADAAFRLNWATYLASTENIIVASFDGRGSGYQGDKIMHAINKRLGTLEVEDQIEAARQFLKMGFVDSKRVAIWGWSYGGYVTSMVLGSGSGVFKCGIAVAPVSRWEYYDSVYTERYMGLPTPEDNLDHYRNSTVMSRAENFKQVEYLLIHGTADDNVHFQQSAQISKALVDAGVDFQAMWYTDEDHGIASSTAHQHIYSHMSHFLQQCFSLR

SMILES	IC50 [1] [nM]	IC50 [2] [nM]	plasma DPP-IV inhibitory activity (assessment in words) ([2]; statement in the text on Experimental Example 1, species not distinguished)
N#Cc1ccc(NCCCC[C@H](N)C(=O)N2CCSC2)c([N+](=O)[O-])c1 [Example 5, 3-[(S)-2-amino-6-(4-cyano-2-nitrophenylamino)hexanoyl]-1,3-thiazolidine]	19	28	
N#Cc1ccc(NCCCC[C@H](N)C(=O)N2CCSC2)nc1 [Example 6, 3-[(S)-2-amino-6-(5-cyanopyridin-2-ylamino)hexanoyl]-1,3-thiazolidine dihydrochloride]	29	34	
CS(=O)(=O)c1ccc(NCCCC[C@H](N)C(=O)N2CCSC2)cc1 [Example 7, 3-[(S)-2-amino-6-(4-methanesulfonylphenylamino)hexanoyl]-1,3-thiazolidine]	13	15	
N#Cc1ccc(NCCCC[C@H](N)C(=O)N2CCSC2)cc1C(F)(F)F [Example 13, 3-{(S)-2-amino-6-[4-cyano-3-(trifluoromethyl)phenylamino]hexanoyl}-1,3-thiazolidine]	40	66	
N[C@@H](CCCCNc1ccc([N+](=O)[O-])cn1)C(=O)N1CCSC1 [Example 14, 3-[(S)-2-amino-6-(5-nitropyridin-2-ylamino)hexanoyl]-1,3-thiazolidine]	18	29	
N[C@@H](CCCCN1CCN(c2cc(C(F)(F)F)nc3ccccc23)CC1)C(=O)N1CCSC1 [Example 28, 3-{(S)-2-amino-6-[4-(2-trifluoromethyl-4-quinolyl)piperazin-1-yl]hexanoyl}-1,3-thiazolidine dihydrochloride]	49	35	
O=C([C@@H]1C[C@H](N2CCN(c3cc(C(F)(F)F)nc4ccc(O)cc34)CC2)CN1)N1CCSC1 [Example 48, 3-{(2S,4S)-4-[4-(2-trifluoromethyl-6-hydroxy-4-quinolyl)-1-piperazinyl]-2-pyrrolidinylcarbonyl}-1,3-thiazolidine dihydrochloride]	0.37	0.25	
COc1cc(OC)c2nc(C(F)(F)F)cc(N3CCN([C@@H]4CN[C@H](C(=O)N5CCSC5)C4)CC3)c2c1 [Example 55, 3-{(2S,4S)-4-[4-(2-trifluoromethyl-6,8-dimethoxy-4-quinolyl)-1-piperazinyl]-2-pyrrolidinylcarbonyl}-1,3-thiazolidine dihydrochloride]	0.3	0.24	
Cc1cc(C)n(C2CCN([C@@H]3CN[C@H](C(=O)N4CCSC4)C3)CC2)n1 [Example 56, 3-{(2S,4S)-4-[4-(3,5-dimethyl-1-pyrazolyl)piperidino]-2-pyrrolidinylcarbonyl}-1,3-thiazolidine trihydrochloride]	1.17	0.91	
NCCCC[C@H](N)C(=O)N1CCSC1.O=C(O)C(F)(F)F.O=C(O)C(F)(F)F [comparison compound 1, 3-L-lysyl-1,3-thiazolidine ditrifluoroacetate, reference compound]	719	856	sufficient

— US7790725B2, “Thiazolidine derivatives and medicinal use thereof” (Mitsubishi Tanabe Pharma Corporation, priority 2001, dated 2010)
